Data reported in US20210381051A1, “DNA METHYLATION BIOMARKER OF AGING FOR HUMAN EX VIVO AND IN VIVO STUDIES” (The Regents of the University of California, priority 2018, published 2021).

Key:
[1] = system: neonatal dermal fibroblasts; assay: Ex vivo epigenetic aging of fibroblasts by the skin & blood clock; format: cell-based, human; conditions: suggestive evidence
Text: (§1) FIG. 6. Ex vivo study of compounds that may accelerate or decelerate epigenetic aging. A) Effect of Y-27632 and rapamycin treatment on neonatal keratinocytes measured by the skin & blood clock. B) Effect of oestrogen on neonatal dermal fibroblasts.
(§2) By its ability to quantitatively track aging of human cells ex vivo, the skin & blood clock lends itself to be used in the development of an ex vivo human cell aging assay that can be used for testing and screening compounds with anti-aging or pro-aging effects.

HGPS patients = conditions: after 2.2 years of follow-up, 27% death in the matched untreated group; cited from earlier work
[2] = system: primary human keratinocytes from neonatal foreskins; assay: Ex vivo human cell aging assay: DNAm age of cultured keratinocytes by the skin & blood clock; format: cell-based
Text: as §1, §2
(§3) Primary keratinocytes were isolated from human neonatal foreskins from three donors (Donor A, B and C) and were put in culture with standard media or media supplemented with rapamycin, Y-27632 or a cocktail of both of these compounds (methods). The cells were passaged continually and population doublings at each passage recorded. In time all cells, regardless of donor or treatment underwent replicative senescence, where they ceased to increase their numbers after at least 2 weeks in culture with regular replenishment of media. […] DNA methylation profiles from a selection of passages of these cells were obtained and analysed with the skin & blood clock. […]
(§4) Primary human neonatal fibroblasts were isolated from circumcised foreskins. […] Upon confluence, cells were trypsinised, counted and 100,000 were seeded into fresh fibronectin/collagen-coated plates. […]

[3] = system: primary human keratinocytes; assay: Keratinocyte proliferation rate and proliferative capacity (population doublings); format: cell-based; conditions: rapamycin 25 nM, Y-27632 1 μM
Text: The availability of an epigenetic clock, such as the skin & blood clock, which is applicable to cultured cells, allows epigenetic ageing to be studied beyond the purely descriptive nature afforded by epidemiological analyses alone. Towards this end, we have established in vitro epigenetic ageing systems using primary human cells. One of this is based on primary keratinocytes that are derived from healthy human skins. […] The opposing effects of these compounds on keratinocyte proliferation present us with the opportunity to test whether cellular proliferation rate impacts epigenetic ageing while carrying out our primary aim of interrogating the effects of rapamycin on epigenetic ageing.
as §3, with “recorded.” for “recorded. In time all cells, regardless of donor or treatment underwent replicative senescence, where they ceased to increase their numbers after at least 2 weeks in culture with regular replenishment of media.”
as §4

[4] = system: progerin accumulation in HGPS cells; conditions: in vitro studies [41, 42]; cited from earlier work

Compound: estrogen
- epigenetic aging (skin & blood clock), FIG. 6B [1]: associated with slower epigenetic aging

Compound: NC(=O)N1CCC(CC(=O)N2CCC([C@H]3c4ncc(Br)cc4CCc4cc(Cl)cc(Br)c43)CC2)CC1 [lonafarnib]
- death in the treated group (HGPS patients): 6.3%

Compound: C[C@@H](N)[C@H]1CC[C@H](C(=O)Nc2ccncc2)CC1 [Y-27632]
- epigenetic aging (skin & blood clock), FIG. 6A ([2]; Example 1, dividing / neonatal keratinocytes, suggestive evidence): appears to increase epigenetic aging
- epigenetic ageing (skin & blood clock) ([2]; Example 2, neonatal foreskin keratinocytes of three donors, CnT-07 medium, rapamycin 25 nM, Y-27632 1 μM, present for the entire duration): did not impose any appreciable effect
- cellular proliferation rate (population doublings per unit of time) [3]: increases it

Compound: CN(C)C(=N)N=C(N)N [metformin]
- progerin accumulation and cellular HGPS phenotypes [4]: reduction of progerin accumulation
